Species on record: Rattus norvegicus
Experiment: DrugMatrix - Regimen: Daily Repeat
Format: toxicity, organism-based, Sprague-Dawley
Design: regimen Daily Repeat, gender Male, age 6-8 weeks
Conditions: in vivo, po, route oral GAVAGE, vehicle .5 % CMC; for ABSOLUTE BASOPHIL / ABSOLUTE EOSINOPHIL / ABSOLUTE LYMPHOCYTE / ABSOLUTE MONOCYTE / ABSOLUTE SEGMENTED NEUTROPHIL / BASOPHIL / EOSINOPHIL / ERYTHROCYTE COUNT / HEMATOCRIT / HEMOGLOBIN / LEUKOCYTE COUNT / LYMPHOCYTE / MEAN CORPUSCULAR HEMOGLOBIN / MEAN CORPUSCULAR HEMOGLOBIN CONCENTRATION / MEAN CORPUSCULAR VOLUME / MONOCYTE / NEUTROPHIL / NUCLEATED RED BLOOD CELLS / PLATELET COUNT: tissue Blood; for ALANINE AMINOTRANSFERASE / ALBUMIN / ALKALINE PHOSPHATASE / ASPARTATE AMINOTRANSFERASE / BLOOD UREA NITROGEN / CARBON DIOXIDE / CHLORIDE / CHOLESTEROL / CREATINE PHOSPHOKINASE / CREATININE / GLUCOSE / LACTATE DEHYDROGENASE / LIPASE / PHOSPHORUS / POTASSIUM / SODIUM / TOTAL BILIRUBIN / TOTAL PROTEIN / URIC ACID: tissue Plasma
[1] = 15 mg/kg, 72 h, dose level Low, time 3 day
[2] = 15 mg/kg, 120 h, dose level Low, time 5 day
[3] = 2000 mg/kg, 72 h, dose level High, time 3 day
[4] = 2000 mg/kg, 120 h, dose level High, time 5 day

For `C[C@]12CCC(=O)C=C1CC[C@@H]1[C@@H]2CC[C@@]2(C)[C@H]1CC[C@]2(C)O` [METHYLTESTOSTERONE], the “ABSOLUTE BASOPHIL” value [1] was 0 CELLS/uL, the “ABSOLUTE EOSINOPHIL” value [1] was 240 CELLS/uL and the “ABSOLUTE LYMPHOCYTE” value [1] was 14115 CELLS/uL. For the same compound, the “ABSOLUTE MONOCYTE” value [1] was 60.67 CELLS/uL, the “ABSOLUTE SEGMENTED NEUTROPHIL” value [1] was 1817.67 CELLS/uL and the BASOPHIL [1] was 0%. For the same compound, the EOSINOPHIL [1] was 1.33%, the “ERYTHROCYTE COUNT” value [1] was 5.48 x10E6/uL and the HEMATOCRIT [1] was 33.23%. The HEMOGLOBIN [1] was 12.9 G/DL, the “LEUKOCYTE COUNT” value [1] was 16.23 x10E3/uL and the LYMPHOCYTE [1] was 87%. The “MEAN CORPUSCULAR HEMOGLOBIN” value [1] was 23.53 pg, the “MEAN CORPUSCULAR HEMOGLOBIN CONCENTRATION” value [1] was 38.8 G/DL and the “MEAN CORPUSCULAR VOLUME” value [1] was 60.73 fL. For the same compound, the MONOCYTE [1] was 0.33%, the NEUTROPHIL [1] was 11.33% and the “NUCLEATED RED BLOOD CELLS” value [1] was 0 /100WBC. For the same compound, the “PLATELET COUNT” value [1] was 1314.67 x10E3/uL, the “ALANINE AMINOTRANSFERASE” value [1] was 47.33 u/L and the ALBUMIN [1] was 4.2 G/DL. The “ALKALINE PHOSPHATASE” value [1] was 275.33 u/L, the “ASPARTATE AMINOTRANSFERASE” value [1] was 99.33 u/L and the “BLOOD UREA NITROGEN” value [1] was 18.67 mg/dL. For the same compound, the “CARBON DIOXIDE” value [1] was 27 mmol/L, the CHLORIDE [1] was 103 MEQ/L and the CHOLESTEROL [1] was 75 mg/dL. The “CREATINE PHOSPHOKINASE” value [1] was 593 u/L, the CREATININE [1] was 0.23 mg/dL and the GLUCOSE [1] was 141 mg/dL. For the same compound, the “LACTATE DEHYDROGENASE” value [1] was 578.33 u/L, the LIPASE [1] was 9 u/L and the PHOSPHORUS [1] was 11.9 mg/dL. The POTASSIUM [1] was 5.93 MEQ/L, the SODIUM [1] was 145.33 MEQ/L and the “TOTAL BILIRUBIN” value [1] was 0.2 mg/dL. For the same compound, the “TOTAL PROTEIN” value [1] was 5.8 G/DL, the “URIC ACID” value [1] was 1.47 mg/dL and the “ABSOLUTE BASOPHIL” value [2] was 0 CELLS/uL. For the same compound, the “ABSOLUTE EOSINOPHIL” value [2] was 157.67 CELLS/uL, the “ABSOLUTE LYMPHOCYTE” value [2] was 14288.33 CELLS/uL and the “ABSOLUTE MONOCYTE” value [2] was 45 CELLS/uL. The “ABSOLUTE SEGMENTED NEUTROPHIL” value [2] was 1275.67 CELLS/uL, the BASOPHIL [2] was 0% and the EOSINOPHIL [2] was 1%. For the same compound, the “ERYTHROCYTE COUNT” value [2] was 5.89 x10E6/uL, the HEMATOCRIT [2] was 35.43% and the HEMOGLOBIN [2] was 13.6 G/DL. For the same compound, the “LEUKOCYTE COUNT” value [2] was 15.77 x10E3/uL, the LYMPHOCYTE [2] was 90.33% and the “MEAN CORPUSCULAR HEMOGLOBIN” value [2] was 23.1 pg. The “MEAN CORPUSCULAR HEMOGLOBIN CONCENTRATION” value [2] was 38.4 G/DL, the “MEAN CORPUSCULAR VOLUME” value [2] was 60.17 fL and the MONOCYTE [2] was 0.33%. The NEUTROPHIL [2] was 8.33%, the “NUCLEATED RED BLOOD CELLS” value [2] was 0 /100WBC and the “PLATELET COUNT” value [2] was 1359 x10E3/uL. The “ALANINE AMINOTRANSFERASE” value [2] was 52.33 u/L, the ALBUMIN [2] was 4.13 G/DL and the “ALKALINE PHOSPHATASE” value [2] was 322.67 u/L. For the same compound, the “ASPARTATE AMINOTRANSFERASE” value [2] was 91 u/L, the “BLOOD UREA NITROGEN” value [2] was 13.67 mg/dL and the “CARBON DIOXIDE” value [2] was 26.67 mmol/L. For the same compound, the CHLORIDE [2] was 103 MEQ/L, the CHOLESTEROL [2] was 77.33 mg/dL and the “CREATINE PHOSPHOKINASE” value [2] was 245 u/L. The CREATININE [2] was 0.17 mg/dL, the GLUCOSE [2] was 149.33 mg/dL and the “LACTATE DEHYDROGENASE” value [2] was 232.33 u/L. It also gave an LIPASE [2] of 9.33 u/L, a PHOSPHORUS [2] of 12.6 mg/dL and a POTASSIUM [2] of 6.3 MEQ/L. The SODIUM [2] was 143.83 MEQ/L, the “TOTAL BILIRUBIN” value [2] was 0.17 mg/dL and the “TOTAL PROTEIN” value [2] was 5.87 G/DL. For the same compound, the “URIC ACID” value [2] was 1.73 mg/dL, the “ABSOLUTE BASOPHIL” value [3] was 0 CELLS/uL and the “ABSOLUTE EOSINOPHIL” value [3] was 184 CELLS/uL. The “ABSOLUTE LYMPHOCYTE” value [3] was 15708.67 CELLS/uL, the “ABSOLUTE MONOCYTE” value [3] was 378.67 CELLS/uL and the “ABSOLUTE SEGMENTED NEUTROPHIL” value [3] was 2662 CELLS/uL. For the same compound, the BASOPHIL [3] was 0%, the EOSINOPHIL [3] was 1% and the “ERYTHROCYTE COUNT” value [3] was 6.47 x10E6/uL. The HEMATOCRIT [3] was 38.33%, the HEMOGLOBIN [3] was 14.53 G/DL and the “LEUKOCYTE COUNT” value [3] was 18.93 x10E3/uL. For the same compound, the LYMPHOCYTE [3] was 83%, the “MEAN CORPUSCULAR HEMOGLOBIN” value [3] was 22.53 pg and the “MEAN CORPUSCULAR HEMOGLOBIN CONCENTRATION” value [3] was 37.97 G/DL. For the same compound, the “MEAN CORPUSCULAR VOLUME” value [3] was 59.27 fL, the MONOCYTE [3] was 2% and the NEUTROPHIL [3] was 14%. For the same compound, the “NUCLEATED RED BLOOD CELLS” value [3] was 0 /100WBC, the “PLATELET COUNT” value [3] was 1292 x10E3/uL and the “ALANINE AMINOTRANSFERASE” value [3] was 50.33 u/L. For the same compound, the ALBUMIN [3] was 3.93 G/DL, the “ALKALINE PHOSPHATASE” value [3] was 352.33 u/L and the “ASPARTATE AMINOTRANSFERASE” value [3] was 71.67 u/L. For the same compound, the “BLOOD UREA NITROGEN” value [3] was 13 mg/dL, the “CARBON DIOXIDE” value [3] was 27.67 mmol/L and the CHLORIDE [3] was 101.33 MEQ/L. For the same compound, the CHOLESTEROL [3] was 14.67 mg/dL, the “CREATINE PHOSPHOKINASE” value [3] was 215 u/L and the CREATININE [3] was 0.25 mg/dL. For the same compound, the GLUCOSE [3] was 123.33 mg/dL, the “LACTATE DEHYDROGENASE” value [3] was 352 u/L and the LIPASE [3] was 7.33 u/L. The PHOSPHORUS [3] was 10.83 mg/dL, the POTASSIUM [3] was 6.24 MEQ/L and the SODIUM [3] was 142.83 MEQ/L. For the same compound, the “TOTAL BILIRUBIN” value [3] was 0.5 mg/dL, the “TOTAL PROTEIN” value [3] was 5.53 G/DL and the “URIC ACID” value [3] was 1.17 mg/dL. For the same compound, the “ABSOLUTE BASOPHIL” value [4] was 0 CELLS/uL, the “ABSOLUTE EOSINOPHIL” value [4] was 0 CELLS/uL and the “ABSOLUTE LYMPHOCYTE” value [4] was 14176.33 CELLS/uL. The “ABSOLUTE MONOCYTE” value [4] was 40.33 CELLS/uL, the “ABSOLUTE SEGMENTED NEUTROPHIL” value [4] was 2783.33 CELLS/uL and the BASOPHIL [4] was 0%. The EOSINOPHIL [4] was 0%, the “ERYTHROCYTE COUNT” value [4] was 6.11 x10E6/uL and the HEMATOCRIT [4] was 36.23%. For the same compound, the HEMOGLOBIN [4] was 13.97 G/DL, the “LEUKOCYTE COUNT” value [4] was 17 x10E3/uL and the LYMPHOCYTE [4] was 83%. The “MEAN CORPUSCULAR HEMOGLOBIN” value [4] was 22.9 pg, the “MEAN CORPUSCULAR HEMOGLOBIN CONCENTRATION” value [4] was 38.53 G/DL and the “MEAN CORPUSCULAR VOLUME” value [4] was 59.37 fL. For the same compound, the MONOCYTE [4] was 0.33%, the NEUTROPHIL [4] was 16.67% and the “NUCLEATED RED BLOOD CELLS” value [4] was 0.33 /100WBC. The “PLATELET COUNT” value [4] was 1295.33 x10E3/uL, the “ALANINE AMINOTRANSFERASE” value [4] was 46 u/L and the ALBUMIN [4] was 3.83 G/DL. For the same compound, the “ALKALINE PHOSPHATASE” value [4] was 370 u/L, the “ASPARTATE AMINOTRANSFERASE” value [4] was 60 u/L and the “BLOOD UREA NITROGEN” value [4] was 16.33 mg/dL. For the same compound, the “CARBON DIOXIDE” value [4] was 26 mmol/L, the CHLORIDE [4] was 105 MEQ/L and the CHOLESTEROL [4] was 28.33 mg/dL. For the same compound, the “CREATINE PHOSPHOKINASE” value [4] was 184.33 u/L, the CREATININE [4] was 0.2 mg/dL and the GLUCOSE [4] was 158.33 mg/dL. The “LACTATE DEHYDROGENASE” value [4] was 186.67 u/L, the LIPASE [4] was 7.67 u/L and the PHOSPHORUS [4] was 12.33 mg/dL. The POTASSIUM [4] was 6.29 MEQ/L, the SODIUM [4] was 149.6 MEQ/L and the “TOTAL BILIRUBIN” value [4] was 0.3 mg/dL. For the same compound, the “TOTAL PROTEIN” value [4] was 6.03 G/DL and the “URIC ACID” value [4] was 1.5 mg/dL.
